In patent US20180071354A1, “SELECTIVE BREEDING METHOD OF ANTITUMOR/ANTICANCER CAMELLIA SINENSIS STRAIN, AND TEA PRODUCT OF SUCH STRAIN” (FUJIAN AGRICULTURE AND FORESTRY UNIVERSITY, priority 2015, published 2018):
Values after ≈ are worked out from the molar mass of the structure shown.

Key:
Type in all cases: cell-based
[1] = test system: human colon cancer cell line HCT-116; assay: In vitro antitumor/anticancer testing (CCK-8), HCT-116; details: Homo sapiens, HCT-116, 48 h
Procedure: (§1) Each of Tea Product 1 and Conventional Tea Product obtained in section A of this example was used to prepare test tea samples according to the method described below. A proper amount of the respective tea product was added into sterile water to prepare a stock solution with a concentration of 100 mg/mL, followed by using a membrane filter with a pore size of 0.22 μm to conduct vacuum filtration and sterilization. The resulting stock solution was diluted with a respective complete medium shown in Table 3 below to form test tea samples with different concentrations. In other words, the thus obtained test tea samples to be used for treating a respective cancer/tumor cell line shown in Table 3 were prepared using the same complete medium as that for the respective cancer/tumor cell line. […] Specifically, each of the aforesaid commercially available agents was subjected to the method described below to prepare comparative test samples. A proper amount of a respective commercially available agent was dissolved in phosphate-buffered saline (PBS) to prepare a stock solution with a concentration of 5 mg/mL, followed by using a membrane filter with a pore size of 0.22 μm to conduct vacuum filtration and sterilization. The resulting stock solution was diluted with a respective complete medium shown in Table 3 below to form comparative test samples with different concentrations. To be specific, the comparative test samples prepared from the respective commercially available agent have the concentrations shown in Table 2 below. The thus obtained comparative test samples to be used for treating a respective cancer/tumor cell line shown in Table 3 were prepared using the same complete medium as that for the respective cancer/tumor cell line. […] The cultivation of each cancer/tumor cell line is described as follows. […] Afterwards, a cell suspension having a cell density of 1.0×10^4 cells/mL was prepared. […] As experimental groups, the tumor/cancer cells of each cell line were treated with the test tea samples prepared from one or more of the tea products and the comparative test samples prepared from one or more of the commercially available agents as obtained in section B of this example (for more detailed information about the tea product(s) and the commercially available product (s) used to treat each cell line, please see Table 4 below). To be specific, 6 to 10 test tea samples prepared from the same tea product and having different concentrations, as well as 6 to 10 comparative test samples prepared from the same commercially available agent and having different concentrations, were utilized to treat the tumor/cancer cells of each cell line. For each experimental group, 6 repetitions of tumor/cancer treatment were performed. For the control group, 100 μL of PBS was added to a well containing the medium and the cancer/tumor cells of the respective cell line. For the blank group, 100 μL of PBS was added to a well containing a complete medium the same as that used for cultivation of the cancer/tumor cells of the respective cell line. After the treatment described above, cultivation was conducted in an incubator (37° C., 100% relative humidity, 5% CO2) for 48 hours. Subsequently, the liquid containing the medium and the sample in the well was removed, and a respective complete medium (shown in Table 3 above) containing 10% CCK-8 (Cell Counting Kit-8)(Dojindo Molecular Technologies, Inc., Cat. No. CK04-13) was added. Cultivation was performed in an incubator (37° C.) for 2 to 4 hours, followed by gently shaking.

[2] = test system: human squamous cell carcinoma cell line A431; assay: In vitro antitumor/anticancer testing (CCK-8), A431; details: Homo sapiens, A-431, 48 h
Procedure: as §1

[3] = test system: human gastric cancer cell line SMMC-7721; assay: In vitro antitumor/anticancer testing (CCK-8), SMMC-7721; details: Homo sapiens, SMMC-7721, 48 h
Procedure: as §1

[4] = test system: human gastric cancer cell line BGC-823; assay: In vitro antitumor/anticancer testing (CCK-8), BGC-823; details: Homo sapiens, BGC-823, 48 h
Procedure: as §1

[5] = 0.3125 μg/mL, read-out: Percent growth inhibition
[6] = 0.625 μg/mL, read-out: Percent growth inhibition
[7] = 1.25 μg/mL, read-out: Percent growth inhibition
[8] = 2.5 μg/mL, read-out: Percent growth inhibition
[9] = 5 μg/mL, read-out: Percent growth inhibition
[10] = 10 μg/mL, read-out: Percent growth inhibition
[11] = 20 μg/mL, read-out: Percent growth inhibition
[12] = 40 μg/mL, read-out: Percent growth inhibition
[13] = 80 μg/mL, read-out: Percent growth inhibition

Compound: O=c1[nH]cc(F)c(=O)[nH]1 [5-fluorouracil]
- inhibition at 0.3125 µg/mL [1, 5]: 70.1%
- inhibition at 0.625 µg/mL [1, 6]: 32.4%
- inhibition at 1.25 µg/mL [1, 7]: 36.4%
- inhibition at 2.5 µg/mL [1, 8]: 88.5%
- inhibition at 5 µg/mL [1, 9]: 89.9%
- inhibition at 10 µg/mL [1, 10]: 91.9%
- inhibition at 20 µg/mL [1, 11]: 95.8%
- inhibition at 40 µg/mL [1, 12]: 97.9%
- inhibition at 80 µg/mL [1, 13]: 99.5%
- IC50 ([1]; read-out: IC50): 0.0493 µg/mL (≈ 0.379 µM)
- inhibition at 0.3125 µg/mL [2, 5]: 82.4%
- inhibition at 0.625 µg/mL [2, 6]: 83.5%
- inhibition at 1.25 µg/mL [2, 7]: 83.1%
- inhibition at 2.5 µg/mL [2, 8]: 83%
- inhibition at 5 µg/mL [2, 9]: 84.4%
- inhibition at 10 µg/mL [2, 10]: 33.7%
- inhibition at 20 µg/mL [2, 11]: 96.3%
- inhibition at 40 µg/mL [2, 12]: 98.2%
- inhibition at 80 µg/mL [2, 13]: 98.8%
- IC50 ([2]; A431, read-out: IC50): 0.272 µg/mL (≈ 2.09 µM)
- inhibition at 0.3125 µg/mL [3, 5]: 28.6%
- inhibition at 0.625 µg/mL [3, 6]: 62.4%
- inhibition at 1.25 µg/mL [3, 7]: 81%
- inhibition at 2.5 µg/mL [3, 8]: 82.7%
- inhibition at 5 µg/mL [3, 9]: 84.3%
- inhibition at 10 µg/mL [3, 10]: 81.6%
- inhibition at 20 µg/mL [3, 11]: 79.1%
- inhibition at 40 µg/mL [3, 12]: 80.2%
- inhibition at 80 µg/mL [3, 13]: 91%
- IC50 [3]: 0.383 µg/mL (≈ 2.94 µM)
- inhibition at 0.3125 µg/mL [4, 5]: -5.82%
- inhibition at 0.625 µg/mL [4, 6]: -4.99%
- inhibition at 1.25 µg/mL [4, 7]: -1.41%
- inhibition at 2.5 µg/mL [4, 8]: 0.92%
- inhibition at 5 µg/mL [4, 9]: 11.6%
- inhibition at 10 µg/mL [4, 10]: 23.9%
- inhibition at 20 µg/mL [4, 11]: 40.9%
- inhibition at 40 µg/mL [4, 12]: 52.7%
- inhibition at 80 µg/mL [4, 13]: 62.8%
- IC50 ([4]; read-out: IC50): 2.55 µg/mL (≈ 19.6 µM)
